Source: patent publication US10376558B2, “Method and compositions for synchronizing time of insemination in gilts” (UNITED-AH II, LLC, priority 2012, dated 2019)

What was measured:
gilts [1] = test: Example 1: estrus detection after triptorelin gel at 96, 120 or 144 h after last MATRIX feeding; type: in vivo, swine; conditions: raw average, PTK 1-07 (rep 3); 200 mcg T at 120 h after MATRIX withdrawal
Procedure: All gilts were individually fed MATRIX® as a top-dress for 14 days at the recommended rate of 15 mg/gilt/day. Gilts were withdrawn from MATRIX® feeding (last top feed in the morning on Day 0) and allotted to treatments. Controls were treated with a 1.2% methylcellulose gel formulation without triptorelin at 96 hours following MATRIX® withdrawal (last top-dress). The remaining gilts received 200 mcg triptorelin, as the acetate, in a 1.2% methylcellulose gel formulation intravaginally at various times after MATRIX® withdrawal. The four treatments were: 1) vehicle gel (VG) treatment at 96 hours after MATRIX® withdrawal, 2) triptorelin gel (TG) treatment at 96 hours after MATRIX® withdrawal, 3) TG treatment at 120 hours after MATRIX® withdrawal and 4) TG treatment at 144 hours after MATRIX® withdrawal. All gilts were monitored for their estrous and ovulatory status as described below. Gilts included in replicate 1 were selected from terminal line commercial production gilts located in grow/finish barns. Sexual maturity, as indicated by one or more estrous periods, was not verified prior to the start of MATRIX® feeding. Gilts included in replicate 2 were selected from a maternal line gilt population. Sexual maturity was verified by at least one estrous period verified and recorded prior to starting MATRIX® feeding. […]
Data were analyzed using the Mixed Models procedures of SAS. […]

gilts [2] = test: Example 5: ovulation monitoring by transrectal ultrasonography after 100, 200 or 400 mcg triptorelin gel at 120 h post-MATRIX; type: in vivo, swine; conditions: for Percentage ovulated by 48 hours: after treatment; for Time at which ovulation detected: relative to time of triptorelin gel treatment, Least Squares Mean ± SE; for % of Sows Ovulating / Interval from MATRIX Withdrawal to Ovulation: raw average, PTK 2-07
Procedure: All gilts were individually fed MATRIX® as a top-dress for 14 or 15 days at the recommended rate of 15 mg/gilt/day. Gilts were withdrawn from MATRIX® feeding (last top-dress in the morning on Day 0) and allocated to each of the following treatments. Controls were vehicle gel treated (vehicle gel without triptorelin) at 120 (+/−2) hours following MATRIX® withdrawal (last top dress). The other gilts were given 100, 200 or 400 mcg triptorelin as the acetate in a methylcellulose gel formulation 120 (+/−2) hours following MATRIX® withdrawal. The four treatments were:
2. TG 100: 100 mcg (2 mL 50 mcg/mL) triptorelin gel at 120 (+/−2) hours after MATRIX® withdrawal.
3. TG 200: 200 mcg (2 mL 100 mcg/mL) triptorelin gel at 120 (+/−2) hours after MATRIX® withdrawal.
4. TG 400: 400 mcg (2 mL 200 mcg/mL) triptorelin gel at 120 (+/−2) hours after MATRIX® withdrawal.
Ovulation was monitored twice on Day 5 (8 hours and 16 hours post-treatment) and every 8 hours on Day 6 and Day 7 or until ovulation was confirmed or 176 hours following last MATRIX® feeding. The ovulatory status of all gilts was monitored by transrectal ultrasonography. An Aloka 500 ultrasound machine is used for this purpose, with a 7.5 MHz linear array transducer attached to a fixed-angle PVC stabilizing rod to facilitate insertion into the rectum. The transducer and PVC rod are coated with a gynecological lubricant and gently inserted into the rectum until the ovaries can be visualized, one at a time. The diameters of the three largest follicles were recorded (to the nearest 0.1 mm) at each scanning. A gilt was declared to have ovulated when the number of large follicles (≥6.5 mm) fell to less than 3.
A single 2 mL dose of triptorelin gel or vehicle gel was deposited within approximately 1-2 cm posterior to the cervix with a catheter similar to those used for artificial insemination. The dose was delivered using a standard multi-dose applicator attached to the catheter. A new disposable sheath, which surrounds the catheter, was used for each gilt.

[3] = 100 mcg T (n = 6 catheterized gilts)
[4] = 200 mcg T (n = 7 catheterized gilts)

CC(C)C[C@H](NC(=O)[C@@H](Cc1c[nH]c2ccccc12)NC(=O)[C@H](Cc1ccc(O)cc1)NC(=O)[C@H](CO)NC(=O)[C@H](Cc1c[nH]c2ccccc12)NC(=O)[C@H](Cc1c[nH]cn1)NC(=O)[C@@H]1CCC(=O)N1)C(=O)N[C@@H](CCCNC(=N)N)C(=O)N1CCC[C@H]1C(=O)NCC(N)=O [T, pGlu-His-Trp-Ser-Tyr-D-Trp-Leu-Arg-Pro-Gly-NH2]
Estrous Expression (%) (gilts [1]): 100.0%
Interval from MATRIX withdrawal to Estrus (gilts [1]): 129.6 h
Percentage ovulated by 48 hours (gilts [2]; [3]): 100%
Time at which ovulation detected (gilts [2]; [3]): 40 ± 10 h
Percentage ovulated by 48 hours (gilts [2]; [4]): 100%
Time at which ovulation detected (gilts [2]; [4]): 34 ± 9 h
% of Sows Ovulating (gilts [2]; 100 mcg T at 120 h, 128 h post-MATRIX, 8 h post-T): 0.0%
% of Sows Ovulating (gilts [2]; 100 mcg T at 120 h, 136 h post-MATRIX, 16 h post-T): 5.0%
% of Sows Ovulating (gilts [2]; 100 mcg T at 120 h, 144 h post-MATRIX, 24 h post-T): 20.0%
% of Sows Ovulating (gilts [2]; 100 mcg T at 120 h, 152 h post-MATRIX, 32 h post-T): 30.0%
% of Sows Ovulating (gilts [2]; 100 mcg T at 120 h, 160 h post-MATRIX, 40 h post-T): 60.0%
% of Sows Ovulating (gilts [2]; 100 mcg T at 120 h, 168 h post-MATRIX, 48 h post-T): 95.0%
% of Sows Ovulating (gilts [2]; 100 mcg T at 120 h, 176 h post-MATRIX, 56 h post-T): 100.0%
Interval from MATRIX Withdrawal to Ovulation (gilts [2]; 100 mcg T at 120 h after MATRIX withdrawal): 159.2
% of Sows Ovulating (gilts [2]; 200 mcg T at 120 h, 128 h post-MATRIX, 8 h post-T): 0.0%
% of Sows Ovulating (gilts [2]; 200 mcg T at 120 h, 136 h post-MATRIX, 16 h post-T): 0.0%
% of Sows Ovulating (gilts [2]; 200 mcg T at 120 h, 144 h post-MATRIX, 24 h post-T): 23.8%
% of Sows Ovulating (gilts [2]; 200 mcg T at 120 h, 152 h post-MATRIX, 32 h post-T): 33.3%
% of Sows Ovulating (gilts [2]; 200 mcg T at 120 h, 160 h post-MATRIX, 40 h post-T): 52.4%
% of Sows Ovulating (gilts [2]; 200 mcg T at 120 h, 168 h post-MATRIX, 48 h post-T): 95.2%
% of Sows Ovulating (gilts [2]; 200 mcg T at 120 h, 176 h post-MATRIX, 56 h post-T): 95.2%
Interval from MATRIX Withdrawal to Ovulation (gilts [2]; 200 mcg T at 120 h after MATRIX withdrawal): 158.8
% of Sows Ovulating (gilts [2]; 400 mcg T at 120 h, 128 h post-MATRIX, 8 h post-T): 4.5%
% of Sows Ovulating (gilts [2]; 400 mcg T at 120 h, 136 h post-MATRIX, 16 h post-T): 9.1%
% of Sows Ovulating (gilts [2]; 400 mcg T at 120 h, 144 h post-MATRIX, 24 h post-T): 22.7%
% of Sows Ovulating (gilts [2]; 400 mcg T at 120 h, 152 h post-MATRIX, 32 h post-T): 36.4%
% of Sows Ovulating (gilts [2]; 400 mcg T at 120 h, 160 h post-MATRIX, 40 h post-T): 63.6%
% of Sows Ovulating (gilts [2]; 400 mcg T at 120 h, 168 h post-MATRIX, 48 h post-T): 100.0%
% of Sows Ovulating (gilts [2]; 400 mcg T at 120 h, 176 h post-MATRIX, 56 h post-T): 100.0%
Interval from MATRIX Withdrawal to Ovulation (gilts [2]; 400 mcg T at 120 h after MATRIX withdrawal): 157.1
